{
  "source": "patent US8722338B2",
  "about": "“Modulation of ABCG2-mediated urate transport to treat hyperuricemia and gout” (The Johns Hopkins University, priority 2009, dated 2014)",
  "key": {"[1]": {"target": "T1, endogenous ABCG2 (Sus scrofa, UniProt Q8MIB3)", "T1 construct": "endogenous in cells; host or cells: LLC-PK1 porcine renal epithelial cells", "T1 sequence (Q8MIB3 1-656)": "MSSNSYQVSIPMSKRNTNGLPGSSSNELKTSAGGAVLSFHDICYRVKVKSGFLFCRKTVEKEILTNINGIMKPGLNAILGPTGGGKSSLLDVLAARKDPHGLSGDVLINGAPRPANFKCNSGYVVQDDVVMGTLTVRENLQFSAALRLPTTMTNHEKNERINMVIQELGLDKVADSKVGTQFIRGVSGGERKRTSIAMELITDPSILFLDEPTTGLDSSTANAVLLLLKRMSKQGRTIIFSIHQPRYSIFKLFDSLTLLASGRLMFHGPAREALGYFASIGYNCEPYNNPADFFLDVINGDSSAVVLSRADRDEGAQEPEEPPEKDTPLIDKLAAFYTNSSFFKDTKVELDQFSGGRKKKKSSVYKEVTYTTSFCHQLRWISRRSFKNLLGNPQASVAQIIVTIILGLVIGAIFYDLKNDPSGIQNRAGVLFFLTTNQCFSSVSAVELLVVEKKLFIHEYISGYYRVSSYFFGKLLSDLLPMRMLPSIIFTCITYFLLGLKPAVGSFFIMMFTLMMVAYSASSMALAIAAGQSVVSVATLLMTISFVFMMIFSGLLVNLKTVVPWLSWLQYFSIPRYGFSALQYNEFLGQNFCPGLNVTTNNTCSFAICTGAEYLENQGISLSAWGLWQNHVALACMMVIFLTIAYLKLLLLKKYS", "assay": "Urate accumulation in native LLC-PK1 renal proximal tubule cells", "format": "cell-based, porcine", "conditions": "5 μM FTC; 120 min; polarized LLC-PK1 cells; 500 μM cold urate and 25 μM hot urate", "experimental": "LLC-PK1 porcine renal epithelial cells were cultured in Dulbecco's Modified Eagle medium (DMEM) supplemented with 10% FBS. LLC-PK1 cells were seeded at a high density into a 6-well plate and accumulation experiments were performed after the cells polarized. The cells were incubated in DMEM containing 500 μM cold urate and 25 μM hot urate with or without 5 μM FTC (US Biologicals); the incubation lasted 120 min. The cells were then washed four times with ice-cold DMEM and lysed with 500 μL of 1M NaOH. The lysate was collected and placed in a scintillation tubule along with 5 mL scintillation fluid and counted."}, "[2]": {"target": "human ABCG2 (Homo sapiens, UniProt Q9UNQ0)", "sequence (Q9UNQ0 whole entry)": "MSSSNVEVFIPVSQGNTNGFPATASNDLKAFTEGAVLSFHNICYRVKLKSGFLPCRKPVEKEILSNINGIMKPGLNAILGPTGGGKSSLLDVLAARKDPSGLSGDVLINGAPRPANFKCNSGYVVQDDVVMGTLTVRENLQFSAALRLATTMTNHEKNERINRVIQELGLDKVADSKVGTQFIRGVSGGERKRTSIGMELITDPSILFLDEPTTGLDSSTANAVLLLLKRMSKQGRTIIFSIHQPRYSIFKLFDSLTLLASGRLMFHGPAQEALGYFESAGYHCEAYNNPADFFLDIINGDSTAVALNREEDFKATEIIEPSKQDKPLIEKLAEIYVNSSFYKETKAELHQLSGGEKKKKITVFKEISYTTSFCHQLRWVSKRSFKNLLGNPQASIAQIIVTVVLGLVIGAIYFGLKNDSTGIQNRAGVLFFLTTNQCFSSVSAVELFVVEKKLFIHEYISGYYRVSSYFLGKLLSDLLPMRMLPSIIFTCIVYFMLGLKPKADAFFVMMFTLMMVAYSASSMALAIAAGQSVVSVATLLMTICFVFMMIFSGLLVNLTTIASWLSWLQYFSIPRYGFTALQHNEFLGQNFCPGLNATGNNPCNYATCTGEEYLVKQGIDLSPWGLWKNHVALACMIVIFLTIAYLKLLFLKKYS", "conditions": "5 μM FTC; oocytes injected with ABCG2 WT mRNA; C-14 urate", "method": "Oocytes were removed from female pigmented Xenopus laevis (Xenopus 1 Inc.) and de-folliculated using collagenase A (Roche) in Ca^2+-free OR-2 ringer solution. Stage V-VI oocytes were selected and injected (Nanoinject II, Drummond Scientific) with 50 nL of either mRNA or H2O (as a control). All experiments were performed on the fourth day after injection. Oocytes after injection were cultured in a modified L-15 media (OR-3) and kept at 15-20° C. mRNA was prepared using the SP6 mMessage mMachine (Ambion Inc.) according to the manufactures protocol.\nRadiolabeled C-14 uric acid (American Radio-labeled Chemicals) was dissolved in a stock solution of 2 mM NaOH with a final urate concentration of 2 mM (either 2 mM hot-radio labeled urate or 1 mM hot and 1 mM cold urate). For oocyte transport experiments, the radio labeled C-14 urate was included at various concentrations in ND96 ringers solution (in mM: 96 NaCl, 2 KCl, 2 MgCl2, 5 Hepes, 1.8 CaCl2, pH 7.5, and 5 mM glucose for overnight incubation experiments).\nFor accumulation studies, oocytes were incubated either for 1 or 2 h at room temperature in 50 μM C-14 urate or overnight in 500 μM C-14 urate at 15° C. After incubation the oocytes were washed in ice-cold ND96 solution 3-5 times to remove any superficial, residual C-14 urate from the oocytes. Oocytes were then pooled for scintillation counting. […]"}},
  "note": "“Also recorded” adds a separate entry of the source.",
  "data": [
    {"smiles": "COc1ccc2c3c([nH]c2c1)[C@H](C=C(C)C)N1C(=O)[C@@H]2CCCN2C(=O)[C@@H]1C3", "note": "[FTC, fumitremorgin C]", "values": [
      {"measurement": "urate export / intracellular urate accumulation compared with non-treated control cells", "setting": "[1]", "result": "inhibits urate export; also recorded: significantly higher intracellular urate accumulation"},
      {"measurement": "reduced urate accumulation in ABCG2-expressing oocytes in the presence of inhibitor", "setting": "[2]", "result": "absent"}
    ]}
  ]
}
